Reference: article PMC2934701 (The Journal of Biological Chemistry, 2010)
Where a chain is given by its changes, count along the chain named.

Legend:
hTAS2R16 (ssr3-hTAS2R16) [1] = molecular target: T1, hTAS2R16 (ssr3-hTAS2R16) (Homo sapiens, UniProt Q9NYV7); assay: Fluo-4 calcium assay, HEK293T + Galpha16gust44; assay type: cell-based
T1 sequence (Q9NYV7 1-291): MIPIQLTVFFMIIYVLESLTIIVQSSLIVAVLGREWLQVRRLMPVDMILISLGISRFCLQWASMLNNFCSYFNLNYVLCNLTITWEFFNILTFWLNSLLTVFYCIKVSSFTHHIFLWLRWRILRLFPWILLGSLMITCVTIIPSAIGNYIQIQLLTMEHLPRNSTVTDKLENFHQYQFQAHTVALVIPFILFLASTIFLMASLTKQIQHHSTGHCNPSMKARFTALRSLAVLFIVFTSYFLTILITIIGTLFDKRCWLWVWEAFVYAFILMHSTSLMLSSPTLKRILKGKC

hTAS2R16 (ssr3-hTAS2R16) [2] = molecular target: T2, hTAS2R16 (ssr3-hTAS2R16) (Homo sapiens, UniProt Q9NYV7, E86D); assay: Fluo-4 calcium assay, HEK293T + Galpha16gust44; assay type: cell-based
T2 sequence (Q9NYV7 1-291 E86D): T1 sequence (Q9NYV7 1-291) with E86D

EC50 (hTAS2R16 (ssr3-hTAS2R16) [1]): 1.34 mM | EC50 (hTAS2R16 (ssr3-hTAS2R16) [2]): 10.6 mM
SMILES: OC[C@H]1O[C@@H](Oc2ccc(O)cc2)[C@H](O)[C@@H](O)[C@@H]1O [arbutin]
